The values below are quoted from earlier work in patent publication US7175830B2, “Imaging of drug accumulation as a guide to antitumor therapy” (The United States of America as represented by the …, priority 1999, dated 2007).

Molecules are shown by their SMILES.

The conditions of the data set: circulates in the body; higher than SN-38, the active form.

Take `CCc1c2c(nc3ccc(OC(=O)N4CCC(N5CCCCC5)CC4)cc13)-c1cc3c(c(=O)n1C2)COC(=O)[C@]3(O)CC` [Irinotecan]: the “circulating concentration relative to that of its metabolite SN-38” value is “about 100 fold”.
